The values that follow come from ChEMBL document CHEMBL4613321, “Discovery of Small-Molecule Stabilizers of 14-3-3 Protein-Protein Interactions via Dynamic Combinatorial Chemistry” (ACS Med Chem Lett, 2020).

The source made the active and inactive calls. No cut-off for these calls is given here.

In test [1] the target is T1, 14-3-3 protein zeta/delta (Homo sapiens) (UniProt P63104).
T1 sequence (whole entry): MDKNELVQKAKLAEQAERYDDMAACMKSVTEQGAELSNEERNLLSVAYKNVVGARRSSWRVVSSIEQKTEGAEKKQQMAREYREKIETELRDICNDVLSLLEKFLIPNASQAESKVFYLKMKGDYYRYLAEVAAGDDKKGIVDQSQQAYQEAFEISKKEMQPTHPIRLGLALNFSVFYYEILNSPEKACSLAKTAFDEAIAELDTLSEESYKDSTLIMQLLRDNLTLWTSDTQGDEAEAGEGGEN
Briefly: Competitive binding affinity to 14-3-3 zeta (unknown origin) at 1000 uM in presence of 1 uM synaptopodin by SPR analysis.

Test [2] addresses T2, 14-3-3 protein zeta/delta (Homo sapiens, UniProt P63104).
T2 sequence (P63104 whole entry): T1 sequence (whole entry)
In words: Binding affinity to 14-3-3 zeta (unknown origin) by SPR analysis.

Test [3] deals with T1, 14-3-3 protein zeta/delta (Homo sapiens). In words: Competitive binding affinity to 14-3-3 zeta (unknown origin) at 1000 uM in presence of 25 uM synaptopodin by SPR analysis. For orientation: In SPR one partner is held on a chip, and binding of the other changes the refractive index at the surface.
The target of test [4] is T2, 14-3-3 protein zeta/delta. In words: Binding affinity to 14-3-3 zeta (unknown origin) assessed as 14-3-3 zeta-synaptopodin interaction by fluorescence polarization assay.
For test [5], the target named is T1, 14-3-3 protein zeta/delta (Homo sapiens). In words: Competitive binding affinity to 14-3-3 zeta (unknown origin) at 200 uM in presence of 1 uM synaptopodin by SPR analysis.
Test [6] shares this target. Briefly: Binding affinity to 14-3-3 zeta (unknown origin) assessed as dissociation rate constant by SPR analysis.
For test [7] the target is unchanged. In words: Binding affinity to 14-3-3 zeta (unknown origin) assessed as half life for dissociation by SPR analysis.
The target is the same in test [8]. Briefly: Binding affinity to 14-3-3 zeta (unknown origin) assessed as response unit at 3.1 to 50 uM by SPR analysis.
The target is the same in test [9]. Briefly: Binding affinity to 14-3-3 zeta (unknown origin) assessed as association rate constant by SPR analysis.
For test [10] the target is unchanged. In words: Competitive binding affinity to 14-3-3 zeta (unknown origin) at 25 uM in presence of 1 uM synaptopodin by SPR analysis.

Turning to `O=C(N/N=C/c1cccc(Cl)c1Cl)c1ccccc1P(=O)(O)O`, the result in test [1], in test [3] and in test [5] was Active. Moreover, the affinity in test [2], expressed as Kd, was 1010 µM. In addition, the concentration giving a half-maximal response (EC50) in test [4] stood at 120 µM.

For the molecule `O=C(N/N=C/c1cccc(Br)c1)c1cc2c(s1)CCCC2`, the Kdiss in test [6] is 4.1 ×10⁻² /s. Binding in test [2] was put at a Kd of 16 µM. In addition, the T1/2 in test [7] came to 17 s. Further, in test [8], the RUmax amounted to 4.6. Moreover, the Ka in test [9] was 2.6 ×10³ /M/s. Besides, the result in [10] was Active.

With `O=C(N/N=C/c1cccc(Cl)c1Cl)c1cc2c(s1)CCCC2`, the Kdiss in [6] stood at 8.7 ×10⁻³ /s. In test [2], this molecule yielded a dissociation constant Kd of 15 µM. Moreover, the T1/2 in test [7] came out at 80 s. Besides, the RUmax in [8] amounted to 4.5. Besides, in test [9], the Ka was 5.8 ×10² /M/s. Besides, the outcome in [10] was Active.

As usually defined, the Kd is the free concentration of one partner at which half of the binding sites on the other are occupied at equilibrium, for simple one-to-one binding. A lower Kd goes with a tighter complex. A word on the EC50: it is the concentration needed to bring the measured effect to its halfway point.
